Assay results: patent US5861387A, “Controlled release systems and low dose androgens” (Endorecherche Inc., priority 1995, dated 1999)
Converted amounts (≈) assume the structure as drawn. Where two headings read alike, the source gives them in different places.

Assays:
estrogenic activity = conditions: cited from earlier work
[1] = tested on: human breast cancer ZR-75-1 cells, androgen receptor; experiment: Androgenic (androgen receptor) activity in ZR-75-1 cells: cell growth and GCDFP-15/GCDFP-24 secretion; assay type: cell-based; conditions: ZR-75-1 cells, low concentrations
Description: Maintenance of stock cultures The ZR-75-1 human breast cancer cell line can be obtained from the American Type Culture Collection (Rockville, Md.). The cells are routinely cultured in phenol red-free RPMI 1640 medium supplemented with 10 nM E2, 15 mM Hepes, 2 mM L-glutamine, 1 mM sodium pyruvate, 100 IU penicillin per ml, 100 μg streptomycin sulfate per ml, and 10% (v/v) fetal bovine serum (FBS), in a water-saturated atmosphere of 95% air: 5% CO2 at 37° C.
Stock cultures in their logarithmic growth phase are harvested with 0.05% trypsin/0.02% EDTA (w/v) in Hanks' balanced salts solution and resuspended in E2- and phenol red-free RPMI 1640 medium containing 5% (v/v) dextran-coated charcoal (DCC)-treated FBS and 500 ng of bovine insulin per ml, but otherwise supplemented as described above for maintenance of stock cultures. Cells were plated in 24-well Linbro culture plates (Flow Laboratories) at a final density of 0.5-4.0×10^4 cells/well.
Fourty-eight hours after plating, fresh SD medium containing the appropriate concentrations of steroids are added. […] The incubation media are replaced every other day and cells are harvested by trypsinization after 12 days of treatment, unless otherwise indicated. Cell number can be determined with a Coulter Counter.
Calculations and statistical analyses Apparent IC50 values are calculated using an iterative least squares regression (Rodbard, Endocrinology 94:1427-1437,1974), while apparent inhibition constants (Ki values) are calculated according to Cheng and Prusoff (Biochem. Pharmacol. 22: 3099-3108,1973).
In addition to inhibition of cell growth, the secretion of two glycoproteins, namely gross cystic disease fluid protein-15 (GCDFP-15) and GCDFP-24 is markedly stimulated by androgens (Simard et al., Mol. Endocrinol. 3: 694-702, 1989; Simard et al., Endocrinology 126: 3223-3231, 1990).
(§1) To assist in determining the activity of the potential compounds on the various steroid receptors, androgen, glucocorticoid, progesterone and estrogen-receptor-mediated activities of synthetic progestins and anabolic steroids can be measured in ZR-75-1 human breast cancer cells using cell growth as well as GCDFP-15 and GCDFP-24 release as parameters of response (Poulin and Labrie, Cancer Res. 46: 4933-4937, 1986; Poulin et al., Breast Cancer Res. Treatm. 12: 213-225, 1988; Poulin et al., Breast Cancer Res. Treatm. 13: 161-172, 1989; Poulin et al., Breast Cancer Res. Treatm. 13: 265-276, 1989; Simard et al., Mol. Endocrinol. 3: 694-702, 1989; Simard et al., Endocrinology 126: 3223-3231, 1990).
In order to analyze the interactions of synthetic progestins or anabolic steroids with the androgen receptor (AR) and glucocorticoid receptor (GR) in their inhibitory action on cell growth, one takes advantage of the additivity of the anti-proliferative effects of androgens and glucocorticoids in this cell line (Poulin et al., Breast Cancer Res. Treatm. 12: 213-225, 1988; Hatton and Labrie, F., unpublished data). […] On the other hand, the effect of a putative androgen can similarly be measured following saturation of GR by dexamethasone (DEX). […] Thus, in the presence of excess androgen (1 μM DMT) in the presence of E2 and insulin, glucocorticoid effects can be assessed with precision and with no interference by the other receptors. The same applies to study of the role of AR when the cells are incubated in the presence of excess glucocorticoid (3 μM DEX), in the presence of E2 and insulin.

[2] = tested on: ZR-75-1 human breast cancer cells, glucocorticoid receptor; conditions: detailed kinetic studies
From the text: as §1
In order to analyze the interactions of synthetic progestins or anabolic steroids with the androgen receptor (AR) and glucocorticoid receptor (GR) in their inhibitory action on cell growth, one takes advantage of the additivity of the anti-proliferative effects of androgens and glucocorticoids in this cell line (Poulin et al., Breast Cancer Res. Treatm. 12: 213-225, 1988; Hatton and Labrie, F., unpublished data). […] On the other hand, the effect of a putative androgen can similarly be measured following saturation of GR by dexamethasone (DEX). […]

[3] = Stability to gamma sterilization (SEC, viscosity); assay type: physicochemical; conditions: 2.2 Megarads
From the text: FIGS. 10A and 10B show, in (A), "the variation of the different parameters" [M(n-1), Mn, Mw, Mz,M(z+1)] characteristics of the molecular mass of 50:50 poly[DL-lactide-co-glycolide] following exposure to the indicated levels of gamma irradiation (Mrad); and, in (B), the variation of the polydensity (Mw/Mn) versus the level of gamma irradiation (Mrad).
Before injection, the microspheres were sterilized by exposure to 2.2 Megarads of gamma radiation achieved with a Cobalt-60 source (Gammacell 200). The stability of MPA was checked by steric exclusion chromatography (SEC) while the stability of the polymer was analyzed by SEC using polystyrene standards for calibration and by the modification of the relative viscosity using a Ubbelohde capillary viscometer.
Samples of batch MPA-MB-V have been exposed to different amounts of gamma radiation (0,1.1, 2.2 Megarads) and the molecular mass distribution parameters [M(n-1), Mn, Mw, Mz, M(z+1)] (see FIG. 10A) as well as their polydispersity (Mw/Mn) (FIG. 10B) were measured.

[4] = cited from earlier work
kidney = conditions: mouse, in vivo; cited from earlier work
breast cancer = conditions: high doses, unselected breast cancer patients; cited from earlier work
pituitary AR [5] = conditions: in vivo; cited from earlier work
ventral prostate = conditions: rat, in vivo; cited from earlier work
pituitary AR [6] = conditions: rat, in vivo; cited from earlier work
[7] = tested on: ZR-75-1 human breast cancer cells; conditions: cited from earlier work
endometriosis [8] = conditions: high dose, 6 months, cited from earlier work
antibody 144A = experiment: MPA radioimmunoassay, specificity of antibody 144A; assay type: binding, rabbit
From the text: Antibody 144A was raised in rabbits against 17-hydroxyprogesterone-3-0-carboxymethyloxime-BSA. The labeled steroid used in the radioimmunoassay (RIA) was methyl-17α-hydroxyprogesterone acetate, 6α-[1,2-^3 H(N)]- obtained from NEN (CAT NO: NET 480) while the reference preparation was medroxyprogesterone acetate (MPA) obtained from Steraloids. The assay buffer used was 0.1% gelatin in 0.1M sodium phosphate, 0.15M sodium chloride, 0.1% sodium azide, pH 7.2. The extraction solvent mixture was ethyl ether-acetone (9:1, v:v) [EEA] while the LH-20 chromatography solvent mixture was iso-octane: toluene: methanol (90:5:5;v:v:v) [IOTH].
One ml of plasma was extracted twice with 5 ml of EEA. The extracts were evaporated to dryness with nitrogen and the remaining residue was dissolved in one ml of IOTH. The extracts were then subjected to LH-20 chromatography on […] columns (Coming CAT NO: 05 722A) filled with 2 g of LH-20 (Pharmacia). The gel was washed with 30 ml of IOTH before addition of one ml of sample and elution with IOTH. The first 6 ml were discarded. The following 10, 16.5 and 27.5 ml of eluent were fraction I (progesterone), II (MPA) and III (17-LH-progesterone), respectively. Fraction II was evaporated to dryness and reconstituted in 1.5 ml of assay buffer.
To each 12 x 75 mm borosilicate test tube was added: 0.2 ml containing 25,000 DPM of tritiated steroid, 0.5 ml of reference preparation ranging from 5 to 5000 pg/tube or 0.5 ml of extracted sample fraction II, 0.2 ml of antiserum 144A diluted 1/5000 or 0.2 ml of assay buffer to account for non specific binding. The tubes were then incubated overnight at 4° C. Then, 0.2 ml 2% charcoal Norit-A, 0.2% Dextran T-70 diluted in water was added. The tubes were then shaken gently and, after 10 min, they were centrifuged at 2000 x g for 10 min. The supernatant was mixed with 8 ml of Formula-989 (NEN: NEF-989) and the radioactivity was counted in a β-counter.

endometrial cancer = conditions: high dose; cited from earlier work
[9] = tested on: estrogen binding in the endometrium; conditions: oral, follicular phase; cited from earlier work
[10] = tested on: ZR-75-1 human breast cancer cells, progesterone receptor; experiment: Progesterone receptor-mediated inhibition of ZR-75-1 cell growth; assay type: cell-based
Description: These two characteristics of ZR-75-1 cell growth permit study of the extent to which a tested compound's effects on ZR-75-1 cells are attributed to its interaction with PgR by evaluating the effect of insulin and/or estrogen addition on the growth response measured at the end of a 15-day incubation of ZR-75-1 cells with the test compounds.

[11] = tested on: estrogen (ER) and progesterone (PgR) receptor contents in ZR-75-1 cells; conditions: cited from earlier work
endometriosis [12] = conditions: in vivo; cited from earlier work
bone resorption = conditions: in vivo; cited from earlier work
bone [13] = conditions: in vivo; cited from earlier work
bone [14] = conditions: in vivo; cited from earlier work; remark: listed apart in the source
masculinizing activity = conditions: low blood concentrations; cited from earlier work
[15] = tested on: hypocalcemic effect of calcitonin; conditions: castrated rats; cited from earlier work
bone [16] = conditions: cited from earlier work
bone [17] = conditions: in vivo; cited from earlier work; remark: listed apart in the source

C#CC1(O)CC[C@H]2[C@@H]3CCC4=CC(=O)CC[C@@H]4[C@H]3CC[C@@]21CC (mixture of isomers) [norgestrel]
estrogenic activity (estrogenic activity): possess estrogenic activity | androgenic activity [1]: possess androgenic activity at low concentrations

C[C@@H]1C[C@H]2[C@@H]3CCC4=CC(=O)C=C[C@]4(C)[C@@]3(F)[C@@H](O)C[C@]2(C)[C@@]1(O)C(=O)CO [DEX, dexamethasone]
concentration exerting maximal inhibitory effect on the GR [2]: 3 µM

CC(=O)O[C@]1(C(C)=O)CC[C@H]2[C@@H]3C[C@H](C)C4=CC(=O)CC[C@]4(C)[C@H]3CC[C@@]21C [MPA, 6-alpha-methyl,17-alpha-acetoxy progesterone]
stability to gamma radiation [3]: does not damage MPA | virilizing symptoms ([4]; acne, hirsutism): seldom causes significant virilizing symptoms | adrenal function ([4]; human, in vivo): Suppression of adrenal function | glucocorticoid-like side effects ([4]; human, in vivo): Cushingoid syndrome, euphoria and subjective pain relief | androgenic activity (kidney): exhibits androgenic activity | overall clinical response rate (breast cancer): 40% | effect on gonadotropin secretion (pituitary AR [5]): inhibitory effect | androgenic activity (ventral prostate): exhibits androgenic activity | effect on gonadotropin secretion (pituitary AR [6]): inhibitory effect | concentration of maximal inhibitory action on human breast cancer cell growth [7]: 1 nM | dose required for glucocorticoid action relative to maximal growth inhibition [7]: approximately 1000 fold | mechanism of growth inhibition of ZR-75-1 cells [7]: mainly due to the androgenic properties of the compound | partial resolution (endometriosis [8]; placebo 6%): 13 % of subjects | resolution of the disease (endometriosis [8]; placebo 12%): 50 % of the patients | ED50 value (RIA) (antibody 144A; MPA radioimmunoassay): 0.315 ng/mL (≈ 0.815 nM) | treatment of endometrial cancer (endometrial cancer): successfully used | treatment of endometrial carcinoma compared with Tamoxifen (endometrial cancer): success similar to that of Tamoxifen | level of estrogen binding in the endometrium [9]: decrease in the level of estrogen binding

CCC(=O)[C@@]1(C)CC[C@H]2[C@@H]3CCC4=CC(=O)CCC4=C3CC[C@@]21C [R5020]
condition under which antiproliferative effect is observed [10]: observed only under E1 -stimulated conditions | effect of insulin on inhibition via PgR ([10]; addition of insulin): completely reverses the inhibition

CC(C)(O)C(=O)Nc1ccc([N+](=O)[O-])c(C(F)(F)F)c1 [hydroxyflutamide]
effect on androgenic action of DHT [11]: competitively reversed

C[C@]12CCC(=O)C=C1CC[C@@H]1[C@@H]2CC[C@@]2(C)[C@H]1CC[C@]2(C)O [methyltestosterone, 17α-methyltestosterone]
symptoms of endometriosis (endometriosis [12]): relieve the symptoms of endometriosis

CCCCCCCCCC(=O)O[C@H]1CC[C@H]2[C@@H]3CCC4=CC(=O)CC[C@@H]4[C@H]3CC[C@]12C [nandrolone decanoate]
bone resorption (bone resorption): reduced bone resorption | bone mass (bone [13]): increased bone mass | bone resorption, osteoporotic women (bone [13]): reduced bone resorption

C[C@]12CC[C@H]3[C@@H](CCC4=CC(=O)CC[C@@H]43)[C@@H]1CC[C@@H]2O [nandrolone]
androgenic side effects (bone [14]): 50 % of patients | cortical bone mineral content (bone [14]): increased cortical bone mineral content

C#C[C@]1(O)CC[C@H]2[C@@H]3CCC4=CC(=O)CC[C@@H]4[C@H]3CC[C@@]21C [norethisterone]
estrogenic activity (estrogenic activity): possess estrogenic activity

C[C@]12CC[C@H]3[C@@H](CCC4=CC(=O)CC[C@@]43C)[C@@H]1CC[C@@H]2O [testosterone]
masculinizing activity (masculinizing activity): considerable masculinizing activity even at low blood concentrations | hypocalcemic effect of calcitonin [15]: increases the hypocalcemic effect of calcitonin | cross-reactivity with antibody 144A (antibody 144A): less than 0.1% | bone histomorphometry (bone [16]; hypogonadal males): increases in relative osteoid volume, total osteoid surface, linear extend of bone formation and bone mineralization | nitrogen, calcium and phosphate balance (bone [16]; in vivo): positive nitrogen, calcium and phosphate balance | osteoid surfaces and beam width (bone [16]; in vivo): increase osteoid surfaces and beam width | bone formation (bone [16]; men with primary hypogonadism): increases bone formation | overall quantity of bone (bone [17]): increases the overall quantity of bone
